{"source": "ChEMBL document CHEMBL1201862", "about": "“PubChem BioAssay data set” (2004)", "key": {"[1]": {"test": "cells"}, "[2]": {"test": "HEp-2 cell cytotoxicity, dose response, cytotoxicity control for RSV inhibitor project, HTS (AID 2410)", "assay_type": "functional", "settings": "human respiratory syncytial virus"}, "[3]": {"test_system": "Vero", "test": "cells", "assay_type": "functional, cell-based", "settings": "Chlorocebus sabaeus"}, "[4]": {"test": "cytotoxicity in MIN6 insulinoma cells, dose response, cytotoxicity control, cell-based, mouse insulinoma (AID 2122);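 further: confirmatory high-throughput counterscreen run to flag cytotoxic compounds; mouse MIN-6 beta cells carrying an insulin promoter eGFP reporter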", "assay_type": "functional"}, "[5]": {"test": "insulin promoter down-regulators in MIN6 cells, imaging, high-content screening, mouse beta cells (AID 1628)", "assay_type": "functional"}, "[6]": {"test_system": "HEK293", "test": "cells", "settings": "Homo sapiens"}, "[7]": {"test_system": "HEK293", "test": "cells", "settings": "Homo sapiens", "remark": "listed apart in the source"}}, "note": "Calls of active or inactive are those of the source."}
{"smiles": "Cc1cc(C(C)(C)C)cc(C)c1CCNC(=O)c1ccc[n+]([O-])c1", "values": [{"measurement": "IC50", "setting": "[1]", "value": "38 µM (active)"}, {"measurement": "CC50", "setting": "[2]", "value": "38.3 µM (active)"}, {"measurement": "IC50", "setting": "[3]", "value": "> 25 µM (active)"}]}
{"smiles": "Oc1nc(SCc2nc(O)c3cnn(-c4ccccc4)c3n2)nc2ccccc12", "values": [{"measurement": "IC50", "setting": "[3]", "value": "1.08 µM (active)"}]}
{"smiles": "Cc1cc(NC(=O)CCc2ccc(S(=O)(=O)N3CCOCC3)cc2)n(-c2ccccc2)n1", "values": [{"measurement": "IC50", "setting": "[4]", "value": "1.53 µM (active)"}, {"measurement": "IC50", "setting": "[5]", "value": "2 µM (active)"}]}
{"smiles": "CC(C)(C)N1C(=O)[C@H]2[C@@H](c3ccc(Br)cc3)N3C(=O)N(c4ccccc4)C(=O)[C@@]3(Cc3ccccc3)[C@H]2C1=O", "values": [{"measurement": "EC50", "setting": "[6]", "value": "> 59.6 µM (inactive)"}, {"measurement": "EC50", "setting": "[7]", "value": "> 59.6 µM (inactive)"}]}
